Like-named read-outs stand apart in the source and are kept apart here.
Assays:
[1] = Comparative bioavailability assay in healthy volunteers; format: in vivo; conditions: for AUC0-t, MEAN ± SD / AUC0-t, geometric mean / AUC0-∞, MEAN ± SD / AUC0-∞, geometric mean / Cmax / Tmax / Cmax, MEAN ± SD / Cmax, geometric mean / tmax, median and range: single oral dose, Example 1 5 mg, Example 2 7.3 mg; for Cmax / Tmax: male, human, plasma, po, 5 mg; for Tmax: read-out: tmax, median and range
Experimental: Healthy volunteers in this study will be males 18 years of age or older in order to assess the comparative bioavailability of compound of Example 2 versus compound of Example 1, under fasting conditions and to investigate the effect of a high fat, high calorie meal. Compounds will be administered orally in single dose of Example 1 (5 mg) and Example 2 (7.3 mg). The study will have a randomized, open-label, four-fold crossover design.
In order to determine comparative bioavailability AUC0-t (AUC0-t: Area under the plasma concentration-time curve from time 0 h to the last measurable concentration) and Cmax (Cmax: Observed maximum plasma concentration (peak exposure)) will be determined after each administration.
16 volunteers were included in the study. […] Therefore, all the data were included in all pharmacokinetic measurements and calculations, without any adjustment.

[2] = Plasma pharmacokinetics / oral bioavailability after single IV and PO administration; format: in vivo; conditions: male SD rats; for F % (bioavailability): po 5 mg/Kg vs iv 1 mg/Kg
Experimental: The objective of this study was to investigate the plasma pharmacokinetics of differentes cocrystals obtained from (1R,3S)-3-(5-cyano-4-phenyl-1, 3-thiazol ylcarbamoyl) cyclopentane carboxylic acid, following a single intravenous (IV) and oral (PO) administration in male SD rats.
Animals were divided into two groups: Group 1 (IV: 1 mg/kg) and Group 2 (PO: 5 mg/kg). Animals in Group 1 and 2 were administered a solution of the different cocrystals of (1R,3S)-3-(5-cyano-4-phenyl-1,3-thiazol-2-ylcarbamoyl) cyclopentane carboxylic acid in normal saline. The blood samples were collected from set of three rats at each time point in labeled micro centrifuge tube containing K2EDTA solution as anticoagulant at Pre-dose, 0.083, 0.25, 0.5, 1, 2, 4, 8 and 24 hr (IV) and Pre-dose, 0.25, 0.5, 1, 2, 4, 6, 8 and 24 hr (PO). Plasma samples were separated by centrifugation of whole blood and stored below −70±10° C. until bioanalysis. All samples were processed for analysis by protein precipitation using acetonitrile and analyzed with fit-for-purpose LC-MS/MS method (LLOQ=1.00 ng/ml). Pharmacokinetic parameters were calculated using the non-compartmental analysis tool of Phoenix WinNonlin® (Version 6.3).

[3] = Hygroscopicity study by DVS (Dynamic Vapour Sorption); format: physicochemical; conditions: for moisture content, 15% RH / moisture content, 35% RH / moisture content, 55% RH / moisture content, 75% RH: DVS, 25° C.; for variation in the moisture content: at 75% RH
Experimental: Hygroscopicity study. The hygroscopicity of cocrystals was determined by DVS (Dynamic Vapour Sorption) with a Q5000 TA instrument. This is a gravimetric technique that measures the amount of water absorbed or desorbed by a sample at different relative humidities (RH). At each RH level, the sample mass must be allowed to reach gravimetric equilibrium (or surpass the time limit) before progressing to the next humidity level. Sorption and desorption isotherms were performed at 25° C. over a range of 0-95% RH. The sample was not previously dried, but it was exposed to 0% RH until reaching a stable weight before starting the DVS cycle. This equilibration step allows the elimination of the possible adsorbed humidity from the atmosphere. The relative humidity (RH) was controlled by a mixture of wet and dry nitrogen stream. The RH was held constant until the equilibrium had been obtained (constant weight) or until the maximum time has been reached, before changing the RH to the next level.

[4] = pKa / ΔpKa of free acid and cocrystal forming compounds; format: physicochemical
From the text: Cocrystals are distinguished from salts because unlike salts, the components that co-exist in the cocrystal lattice with a defined stoichiometry interact nonionically. […] If this criterion is met, the API-coformer entity should be classified as a cocrystal. (Regulatory Classification of Pharmaceutical Co-Crystals Guidance for Industry, February 2018, http://www.fda.gov/Drugs/GuidanceComplianceRegulatotyInformation/Guidances/default.htm).

[5] = Crystalline stability under accelerated storage conditions (40° C., 75±5 RH %), XRPD; format: physicochemical; conditions: for Stability, 1 week / Stability, 2 weeks / Stability, 3 weeks / Stability, 4 weeks: 40° C., 75±5 RH %, XRPD; for Stability under forced conditions (one week) and in 4-weeks stability assay: crystallinity, colour, aspect
Experimental: Crystalline stability study was performed under accelerated stability conditions (40° C., 75±5 RH %) for one week. A sample of each form stored on a XRPD silicon holder was exposed in a climatic chamber. It is worth noting that these conditions are very drastic because the high surface exposed to the storage conditions might favour possible crystalline conversion. The samples were periodically analysed by XRPD to observe possible transformation.
Additional crystalline stability study was performed under accelerated stability conditions (40° C., 75±5 RH %). Cocrystal samples were stored in an open vial and exposed in a climate chamber maintaining the conditions set with accuracy (40° C.-75% RH ±5 RH). These samples were analysed weekly for 1 month.
The stability of the cocrystalline forms of (1R,3S)-3-(5-cyano-4-phenyl-1,3-thiazol ylcarbamoyl) cyclopentane carboxylic acid were studied under accelerated storage conditions (40° C., 75±5 RH %) for one to four week. See results in Table 5.
After time exposure, cocrystals remained stable according to XRPD analysis. Amorphization or appearance of crystalline forms was not detected in the limit of detection of the analysis conditions.

[6] = Fed (high fat, high calorie meal)

With `N#Cc1sc(NC(=O)[C@H]2CC[C@@H](C(=O)O)C2)nc1-c1ccccc1` [Example 1, (1R,3S)-3-(5-cyano-4-phenyl-1,3-thiazol-2-ylcarbamoyl) cyclopentane carboxylic acid] the “AUC0-t, MEAN ± SD” value ([1]; Fasting) was 1155.0 ± 567.8 ng/mLxh, the “AUC0-t, geometric mean” value ([1]; Fasting) was “(1052.8) ng/mLxh” and the “AUC0-∞, MEAN ± SD” value ([1]; Fasting) was 1257.2 ± 661.9 ng/mLxh. The “AUC0-∞, geometric mean” value ([1]; Fasting) was “(1132.2) ng/mLxh”, the “AUC0-t, MEAN ± SD” value [1, 6] was 588.1 ± 160.9 ng/mLxh and the “AUC0-t, geometric mean” value [1, 6] was “(567.9) ng/mLxh”. For the same compound, the “AUC0-∞, MEAN ± SD” value [1, 6] was 657.9 ± 191.4 ng/mLxh, the “AUC0-∞, geometric mean” value [1, 6] was “(632.7) ng/mLxh” and the Cmax ([1]; Fasting, read-out: Cmax, MEAN ± SD) was 187 ± 71.6 ng/mL. For the same compound, the Cmax ([1]; Fasting, read-out: Cmax, geometric mean) was 176 ng/mL, the Tmax ([1]; Fasting) was 2.5 h and the Cmax ([1]; Fed (high fat, high calorie meal), read-out: Cmax, MEAN ± SD) was 68 ng/mL. For the same compound, the Cmax ([1]; Fed (high fat, high calorie meal), read-out: Cmax, geometric mean) was 65.6 ng/mL, the Tmax [1, 6] was 7 h and the “F % (bioavailability)” value [2] was 47%. The AUClast ([2]; po, 5 mg/Kg) was 5200.71 ng·h/mL, the Cmax ([2]; po, 5 mg/Kg) was 2012 ng/mL and the “moisture content, 15% RH” value [3] was 0.0168. The “moisture content, 35% RH” value [3] was 0.1842, the “moisture content, 55% RH” value [3] was 0.3008 and the “moisture content, 75% RH” value [3] was 0.4369. The “variation in the moisture content” value [3] was 0.43% and the pKa ([4]; free acid, read-out: pKa) was 4.3.

For `N#Cc1sc(NC(=O)[C@H]2CC[C@@H](C(=O)O)C2)nc1-c1ccccc1.O=C(O)c1cc(O)ccc1O` [Example 2, cocrystal of (1R,3S)-3-(5-cyano-4-phenyl-1,3-thiazol-2-ylcarbamoyl) cyclopentane carboxylic acid and gentisic acid], the “AUC0-t, MEAN ± SD” value ([1]; Fasting) was 1138.5 ± 451.1 ng/mLxh, the “AUC0-t, geometric mean” value ([1]; Fasting) was “(1071.4) ng/mLxh” and the “AUC0-∞, MEAN ± SD” value ([1]; Fasting) was 1216.5 ± 483.3 ng/mLxh. The “AUC0-∞, geometric mean” value ([1]; Fasting) was “(1141.7) ng/mLxh”, the “Cmax, MEAN ± SD” value ([1]; Fasting) was 173.7 ± 60.7 ng/mL and the “Cmax, geometric mean” value ([1]; Fasting) was “(165.8) ng/mL”. For the same compound, the “tmax, median and range” value ([1]; Fasting) was 2.25 (1.5-5.0) h, the “AUC0-t, MEAN ± SD” value [1, 6] was 599.1 ± 132.1 ng/mLxh and the “AUC0-t, geometric mean” value [1, 6] was “(585.9) ng/mLxh”. For the same compound, the “AUC0-∞, MEAN ± SD” value [1, 6] was 675.0 ± 158.8 ng/mLxh, the “AUC0-∞, geometric mean” value [1, 6] was “(659.1) ng/mLxh” and the “Cmax, MEAN ± SD” value [1, 6] was 73.6 ± 25.1 ng/mL. The “Cmax, geometric mean” value [1, 6] was “(69.8) ng/mL”, the “tmax, median and range” value [1, 6] was 7.0 (5.0-7.0) h and the “Cmax compared with Example 1” value ([1]; administered after a high fat meal) was “slightly higher”. For the same compound, the “Stability, 1 week” value [5] was “stable”, the “Stability, 2 weeks” value [5] was “stable” and the “Stability, 3 weeks” value [5] was “stable”. The “Stability, 4 weeks” value [5] was “stable”, the “Stability under forced conditions (one week) and in 4-weeks stability assay” value (“Stability under forced conditions” below) [5] was “no crystallinity changes, colour or any other change in the aspect were observed” and the AUClast ([2]; iv, 1 mg/Kg) was 3304.55 ng·h/mL. For the same compound, the Clearance ([2]; iv, 1 mg/Kg) was 5.03 mL/min/kg, the “F % (bioavailability)” value [2] was 100% and the AUClast ([2]; po, 5 mg/Kg) was 16502.48 ng·h/mL. The Cmax ([2]; po, 5 mg/Kg) was 8642.28 ng/mL, the “moisture content, 15% RH” value [3] was 0.0079 and the “moisture content, 35% RH” value [3] was 0.0175. For the same compound, the “moisture content, 55% RH” value [3] was 0.0398, the “moisture content, 75% RH” value [3] was 0.1035 and the “variation in the moisture content” value [3] was 0.10%. The “Hygroscopicity compared with the free acid” value ([3]; usual storage conditions of drugs (<75% RH), up to 75% RH, listed as cocrystal with gentisic acid) was “less hygroscopic than free acid” and the “Hygroscopicity compared with the free acid” value ([3]; usual storage conditions of drugs (<75% RH), up to 75% RH, listed as gentisic acid cocrystal) was “less hygroscopicity than the free acid”.

With `N#Cc1sc(NC(=O)[C@H]2CC[C@@H](C(=O)O)C2)nc1-c1ccccc1.NC(N)=O` [Example 3, cocrystal of (1R,3S)-3-(5-cyano-4-phenyl-1,3-thiazol-2-ylcarbamoyl) cyclopentane carboxylic acid and urea] the “Stability, 1 week” value [5] was “stable”, the “Stability, 2 weeks” value [5] was “stable” and the “Stability, 3 weeks” value [5] was “stable”. For the same compound, the “Stability, 4 weeks” value [5] was “stable”, the “Stability under forced conditions” value [5] was “no crystallinity changes, colour or any other change in the aspect were observed” and the AUClast ([2]; iv, 1 mg/Kg) was 2714.55 ng·h/mL. The Clearance ([2]; iv, 1 mg/Kg) was 6.12 mL/min/kg, the “F % (bioavailability)” value [2] was 100% and the AUClast ([2]; po, 5 mg/Kg) was 19238.03 ng·h/mL. The Cmax ([2]; po, 5 mg/Kg) was 10227.47 ng/mL, the “moisture content, 15% RH” value [3] was 0.015 and the “moisture content, 35% RH” value [3] was 0.0339. The “moisture content, 55% RH” value [3] was 0.0545, the “moisture content, 75% RH” value [3] was 0.0895 and the “variation in the moisture content” value [3] was 0.08%. The “Hygroscopicity compared with the free acid” value ([3]; usual storage conditions of drugs (<75% RH), up to 75% RH, listed as cocrystal with urea) was “less hygroscopic than free acid” and the “Hygroscopicity compared with the free acid” value ([3]; usual storage conditions of drugs (<75% RH), up to 75% RH, listed as urea cocrystal) was “less hygroscopicity than the free acid”.

In the case of `N#Cc1sc(NC(=O)[C@H]2CC[C@@H](C(=O)O)C2)nc1-c1ccccc1.NC(=O)c1cccnc1` [Example 4, cocrystal of (1R,3S)-3-(5-cyano-4-phenyl-1,3-thiazol-2-ylcarbamoyl) cyclopentane carboxylic acid and nicotinamide], the “Stability, 1 week” value [5] is reported as “stable”, the “Stability, 2 weeks” value [5] is reported as “stable” and the “Stability, 3 weeks” value [5] is reported as “stable”. The “Stability, 4 weeks” value [5] was “stable”, the “Stability under forced conditions” value [5] was “no crystallinity changes, colour or any other change in the aspect were observed” and the “moisture content, 15% RH” value [3] was 0.029. The “moisture content, 35% RH” value [3] was 0.066, the “moisture content, 55% RH” value [3] was 0.165 and the “moisture content, 75% RH” value [3] was 0.4584. For the same compound, the “Hygroscopicity compared with the free acid” value ([3]; range between 5-70% RH) was “less hygroscopicity than the free acid”.

In the case of `O=C(O)c1cc(O)ccc1O` [Gentisic acid, 2,5-dihydroxybenzoic acid], the pKa conjugated base ([4]; cocrystal forming compound) is reported as “Not basic”.

`NC(=O)c1cccnc1` [Nicotinamide, 3-pyridinecarboxamide] gave a ΔpKa ([4]; between the free acid (pKa 4.3) and the cocrystal forming compound) of 0.9 and a pKa ([4]; cocrystal forming compound, read-out: pKa conjugated base) of 3.4.

With `NC(N)=O` [Urea, urea] the pKa conjugated base ([4]; cocrystal forming compound) was “Not basic”.
